# Patent US10570454B2, “Methods of identifying individuals at increased risk of lung cancer” (Trustees of Boston University, priority 2007, dated 2020)
# “Also recorded” adds a separate entry of the source.
# Key:
# PI3K [1] = experiment: PI3K kinase assay (PIP3 production) in insulin-stimulated BEAS-2B cells; assay type: cell-based; details: BEAS-2B (bronchial airway cell line), insulin-activated, varying doses
# Experimental: (§1) Insulin was used to activate the PI3K pathway in three different cell lines: (FIG. 5A) BEAS-2B (bronchial airway cell line), (FIG. 5B) BT549 (breast cancer cell line), and (FIG. 5C) HEK293 (human embryonic kidney cell line). The cell lines were then treated with varying doses of myo-inositol and LY-294002. PIP3 levels were measured to quantify the activation levels of the PI3K pathway (y-axis). […] Replication of these experiments produced similar results.
# (§2) 80% confluent BEAS-2B, BT549, or HEK293 cells were starved in BEBM, RPMI, or DMEM medium, respectively (Clonetics, GibcoBRL). This media contained either 0.1% added supplements for the BEAS-2B cells or 0.1% fetal bovine serum for BT549 and HEK293 cells for 24 hrs. […] The production of PIP3 was evaluated by autoradiography and quantified by densitometry analysis and scintillation analysis. […]
# (§3) A reduction in PI3K activity in patients that responded to myo-inositol with a regression of dysplasia in their airway reinforces the association between elevated PI3K activity levels and the presence of pre-neoplastic airway lesions. […] PI3K activity, as measured by PIP3 levels, was then quantified using a standard kinase assay protocol. For this experiment, three different cell lines were analyzed in replicate: BEAS-2B (airway), BT549 (breast cancer) and HEK293 (embryonic kidney). […]
# PI3K [2] = experiment: PI3K kinase assay (PIP3 production) in insulin-stimulated BT549 cells; assay type: cell-based; details: BT549 (breast cancer cell line), insulin-activated, varying doses
# Experimental: as §1, §2, §3
# PI3K [3] = experiment: PI3K kinase assay (PIP3 production) in insulin-stimulated HEK293 cells; assay type: cell-based; details: HEK293 (human embryonic kidney cell line), insulin-activated, varying doses
# Experimental: as §1, §2, §3
# PI3K pathway = experiment: GSEA of PI3K gene sets in cytologically normal airway epithelium before versus after myo-inositol treatment; assay type: in vivo, human
# Experimental: Cytologically normal airway epithelial samples from patients with dysplastic airway lesions at the University of British Columbia were collected before and after 2-3 months of treatment with myo-inositol (n=20, 10 patients with two samples each), as well as six additional samples collected pre-treatment with myo-inositol as part of a dose response study. In that study, bronchial brushing was performed in three separate 6-8th generation bronchial airways using a 1.7 mm diameter bronchial cytology brush (Hobbs Medical, Stafford Springs, Conn.). The brush was retrieved and immediately immersed in RNALater and kept frozen at −80° C. until assayed. Epithelial cell content of representative bronchial brushing samples has been quantitated by cytocentrifugation (ThermoShandon Cytospin, Pittsburgh, Pa.) of the cell pellet and staining with a cytokeratin antibody (Signet, Dedham Mass.). The cells in the bronchial brush contained >90% bronchial epithelial cells. […]
# Gene Set Enrichment Analysis was calculated using GSEA v2. […] Genes were ranked using the following linear model (as calculated in R): Y=β0+β1+β2+b+ε Where Y is the expression of a gene, β0 is the intercept, β1 measures lung cancer risk (whether the sample has dysplasia or not), β2 is the cumulative cigarette smoke exposure for each person (pack-years), b is a random effect correcting for batch differences, and ε is the error term. […]
# [4] = tested on: dysplastic airway lesions; details: cited from earlier work
compound,measurement,setting,value
O[C@H]1[C@H](O)[C@@H](O)[C@H](O)[C@@H](O)[C@H]1O [myo-inositol],"PI3K activity, as measured by PIP3 levels",PI3K [1],inhibited PI3K activity levels in a dose-dependent manner; also recorded: drop in PIP3 levels
same,"PI3K activity, as measured by PIP3 levels",PI3K [2],inhibited PI3K activity levels in a dose-dependent manner; also recorded: drop in PIP3 levels
same,"PI3K activity, as measured by PIP3 levels",PI3K [3],inhibited PI3K activity levels in a dose-dependent manner; also recorded: drop in PIP3 levels
same,"change in expression of PI3K gene sets (GSEA), before versus after treatment","PI3K pathway; subjects that did not respond to treatment (n=3, 6 samples)",no change in the levels of the PI3K gene sets
same,"change in expression of PI3K gene sets (GSEA), before versus after treatment","PI3K pathway; subjects who did respond to treatment (n=6, 12 samples), p=0.04, FDR Q=0.177",increased expression of genes in the PI3K Down gene set
same,rate of dysplastic regression,"[4]; oral, 2-3 months, smokers with moderate-severe dysplasia, versus placebo-treated control patients",significantly increase the rate of dysplastic regression
same,side effects,[4]; taken orally,very minor side effects
